Experiments:
Format in all cases: in vivo
[1] = tested on: Japanese bulrush (Scirpus juncoides Roxb.); assay: Test Example 1: herbicidal effect by soil application to paddy field; settings: paddy field soil application; active ingredient 1,000 g per 1 hectare; wettable powder added dropwise to water surface the day after sowing; examined on the 21st day after application
In short: (§1)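 Under greenhouse conditions, seeds sown on puddled paddy soil in 100 cm2 pots under 3 cm of standing water received the test compound; injury was assessed with a standard scoring scheme three weeks (day 21) after treatment.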

[2] = tested on: early watergrass (Echinochloa oryzicola Vasing); assay: as above; settings: paddy field soil application; active ingredient 1,000 g per 1 hectare; wettable powder added dropwise to water surface the day after sowing; examined on the 21st day after application
In short: as §1

[3] = tested on: heartshape false pickerelweed (Monochoria vaginalis (Burm.f.) C.Presl); assay: as above; settings: paddy field soil application; active ingredient 1,000 g per 1 hectare; wettable powder added dropwise to water surface the day after sowing; examined on the 21st day after application
In short: as §1

[4] = tested on: barnyardgrass (Echinochloa crus-galli (L.) P. Beauv. var. crus-galli); assay: Test Example 3: herbicidal effect by application to upland field (foliage treatment); settings: 14th day after application; for herbicidal effect, Barnyardgrass: foliage treatment, 1,000 g active ingredient per 1 hectare, greenhouse; for herbicidal effect (index), Barnyardgrass: foliage treatment, plants grown two weeks, 1,000 g active ingredient per hectare
In short: (§2)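 Two weeks after sowing in field soil under greenhouse conditions, seedlings receive a top-down foliar spray of wettable powder diluted in water at an active-ingredient rate of 1,000 g per hectare. Effect is rated against a standard 14 days post-treatment.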

[5] = tested on: green foxtail (Setaria viridis (L.) P. Beauv.); assay: as above; settings: 14th day after application; for herbicidal effect, Green Foxtail: foliage treatment, 1,000 g active ingredient per 1 hectare, greenhouse; for herbicidal effect (index), Green Foxtail: foliage treatment, plants grown two weeks, 1,000 g active ingredient per hectare
In short: as §2

[6] = tested on: slender amaranth (Amaranthus viridis L.); assay: as above; settings: 14th day after application; for herbicidal effect, Slender Amaranth: foliage treatment, 1,000 g active ingredient per 1 hectare, greenhouse; for herbicidal effect (index), Slender Amaranth: foliage treatment, plants grown two weeks, 1,000 g active ingredient per hectare
In short: as §2

[7] = tested on: velvetleaf (Abutilon theophrasti medicus); assay: as above; settings: 14th day after application; for herbicidal effect, Velvetleaf: foliage treatment, 1,000 g active ingredient per 1 hectare, greenhouse; for herbicidal effect (index), Velvetleaf: foliage treatment, plants grown two weeks, 1,000 g active ingredient per hectare
In short: as §2

## CC(C)=CCCn1c(C(F)(F)F)ccc(C(=O)c2cnn(C)c2O)c1=O [IV-15]
[1]
  herbicidal effect, Scirpus juncoides Roxb.: 5 (90% or more of herbicidal effect and crop phytotoxicity)
[2]
  herbicidal effect, Echinochloa oryzicola Vasing: 5 (90% or more of herbicidal effect and crop phytotoxicity)
[3]
  herbicidal effect, Monochoria vaginalis (Burm. f.) C. Presl: 5 (90% or more of herbicidal effect and crop phytotoxicity)
[4]
  herbicidal effect, Barnyardgrass: 4 (70 to less than 90% of herbicidal effect and crop phytotoxicity)
[5]
  herbicidal effect, Green Foxtail: 5 (90% or more of herbicidal effect and crop phytotoxicity)
[6]
  herbicidal effect, Slender Amaranth: 5 (90% or more of herbicidal effect and crop phytotoxicity)
[7]
  herbicidal effect, Velvetleaf: 5 (90% or more of herbicidal effect and crop phytotoxicity)

## O=C1CCCC(O)=C1C(=O)c1ccc(C(F)(F)F)n(Cc2cccc([N+](=O)[O-])c2)c1=O [I-116]
[1]
  herbicidal effect, Scirpus juncoides Roxb.: 5 (90% or more of herbicidal effect and crop phytotoxicity)
[2]
  herbicidal effect, Echinochloa oryzicola Vasing: 5 (90% or more of herbicidal effect and crop phytotoxicity)
[3]
  herbicidal effect, Monochoria vaginalis (Burm. f.) C. Presl: 5 (90% or more of herbicidal effect and crop phytotoxicity)
[4]
  herbicidal effect, Barnyardgrass: 5 (90% or more of herbicidal effect and crop phytotoxicity)
[5]
  herbicidal effect, Green Foxtail: 3 (50 to less than 70% of herbicidal effect and crop phytotoxicity)
[6]
  herbicidal effect, Slender Amaranth: 5 (90% or more of herbicidal effect and crop phytotoxicity)
[7]
  herbicidal effect, Velvetleaf: 5 (90% or more of herbicidal effect and crop phytotoxicity)

## CC(=O)Oc1c(C(=O)c2ccc(C(F)(F)F)n(C)c2=O)cnn1C(C)C [IV-220]
[1]
  herbicidal effect, Scirpus juncoides Roxb.: 5 (90% or more of herbicidal effect and crop phytotoxicity)
[2]
  herbicidal effect, Echinochloa oryzicola Vasing: 5 (90% or more of herbicidal effect and crop phytotoxicity)
[3]
  herbicidal effect, Monochoria vaginalis (Burm. f.) C. Presl: 5 (90% or more of herbicidal effect and crop phytotoxicity)
[4]
  herbicidal effect, Barnyardgrass: 4 (70 to less than 90% of herbicidal effect and crop phytotoxicity)
[5]
  herbicidal effect, Green Foxtail: 3 (50 to less than 70% of herbicidal effect and crop phytotoxicity)
[6]
  herbicidal effect, Slender Amaranth: 5 (90% or more of herbicidal effect and crop phytotoxicity)
[7]
  herbicidal effect, Velvetleaf: 5 (90% or more of herbicidal effect and crop phytotoxicity)

## C#CCn1c(C(F)(F)F)ccc(C(=O)C2=C(O)CCCC2=O)c1=O [I-14]
[1]
  herbicidal effect, Scirpus juncoides Roxb.: 5 (90% or more of herbicidal effect and crop phytotoxicity)
[2]
  herbicidal effect, Echinochloa oryzicola Vasing: 5 (90% or more of herbicidal effect and crop phytotoxicity)
[3]
  herbicidal effect, Monochoria vaginalis (Burm. f.) C. Presl: 5 (90% or more of herbicidal effect and crop phytotoxicity)
[4]
  herbicidal effect (index), Barnyardgrass: 5 (90% or more of herbicidal effect and crop phytotoxicity)
[5]
  herbicidal effect (index), Green Foxtail: 5 (90% or more of herbicidal effect and crop phytotoxicity)
[6]
  herbicidal effect (index), Slender Amaranth: 5 (90% or more of herbicidal effect and crop phytotoxicity)
[7]
  herbicidal effect (index), Velvetleaf: 5 (90% or more of herbicidal effect and crop phytotoxicity)

## CC1CC(C)C(O)=C(C(=O)c2ccc(C(F)(F)F)n(C)c2=O)C1=O (stereo not shown) [II-7]
[1]
  herbicidal effect, Scirpus juncoides Roxb.: 5 (90% or more of herbicidal effect and crop phytotoxicity)
[2]
  herbicidal effect, Echinochloa oryzicola Vasing: 5 (90% or more of herbicidal effect and crop phytotoxicity)
[3]
  herbicidal effect, Monochoria vaginalis (Burm. f.) C. Presl: 5 (90% or more of herbicidal effect and crop phytotoxicity)
[4]
  herbicidal effect, Barnyardgrass: 4 (70 to less than 90% of herbicidal effect and crop phytotoxicity)
[5]
  herbicidal effect, Green Foxtail: 4 (70 to less than 90% of herbicidal effect and crop phytotoxicity)
[6]
  herbicidal effect, Slender Amaranth: 5 (90% or more of herbicidal effect and crop phytotoxicity)
[7]
  herbicidal effect, Velvetleaf: 5 (90% or more of herbicidal effect and crop phytotoxicity)

## Cn1ncc(C(=O)c2ccc(C(F)(F)F)n(CC3CCCO3)c2=O)c1OS(=O)(=O)c1ccc([N+](=O)[O-])cc1 (stereo not shown) [IV-142]
[1]
  herbicidal effect, Scirpus juncoides Roxb.: 5 (90% or more of herbicidal effect and crop phytotoxicity)
[2]
  herbicidal effect, Echinochloa oryzicola Vasing: 5 (90% or more of herbicidal effect and crop phytotoxicity)
[3]
  herbicidal effect, Monochoria vaginalis (Burm. f.) C. Presl: 5 (90% or more of herbicidal effect and crop phytotoxicity)
[4]
  herbicidal effect, Barnyardgrass: 5 (90% or more of herbicidal effect and crop phytotoxicity)
[5]
  herbicidal effect, Green Foxtail: 5 (90% or more of herbicidal effect and crop phytotoxicity)
[6]
  herbicidal effect, Slender Amaranth: 5 (90% or more of herbicidal effect and crop phytotoxicity)
[7]
  herbicidal effect, Velvetleaf: 5 (90% or more of herbicidal effect and crop phytotoxicity)

## COCCN(C)n1c(C(F)(F)F)ccc(C(=O)C2=C(O)CCCC2=O)c1=O [I-176]
[1]
  herbicidal effect, Scirpus juncoides Roxb.: 5 (90% or more of herbicidal effect and crop phytotoxicity)
[2]
  herbicidal effect, Echinochloa oryzicola Vasing: 5 (90% or more of herbicidal effect and crop phytotoxicity)
[3]
  herbicidal effect, Monochoria vaginalis (Burm. f.) C. Presl: 5 (90% or more of herbicidal effect and crop phytotoxicity)
[4]
  herbicidal effect, Barnyardgrass: 5 (90% or more of herbicidal effect and crop phytotoxicity)
[5]
  herbicidal effect, Green Foxtail: 5 (90% or more of herbicidal effect and crop phytotoxicity)
[6]
  herbicidal effect, Slender Amaranth: 5 (90% or more of herbicidal effect and crop phytotoxicity)
[7]
  herbicidal effect, Velvetleaf: 5 (90% or more of herbicidal effect and crop phytotoxicity)

## COC(=O)Nn1c(C(F)(F)F)ccc(C(=O)C2=C(O)CCCC2=O)c1=O [I-189]
[1]
  herbicidal effect, Scirpus juncoides Roxb.: 5 (90% or more of herbicidal effect and crop phytotoxicity)
[2]
  herbicidal effect, Echinochloa oryzicola Vasing: 5 (90% or more of herbicidal effect and crop phytotoxicity)
[3]
  herbicidal effect, Monochoria vaginalis (Burm. f.) C. Presl: 5 (90% or more of herbicidal effect and crop phytotoxicity)
[4]
  herbicidal effect, Barnyardgrass: 4 (70 to less than 90% of herbicidal effect and crop phytotoxicity)
[5]
  herbicidal effect, Green Foxtail: 4 (70 to less than 90% of herbicidal effect and crop phytotoxicity)
[6]
  herbicidal effect, Slender Amaranth: 5 (90% or more of herbicidal effect and crop phytotoxicity)
[7]
  herbicidal effect, Velvetleaf: 5 (90% or more of herbicidal effect and crop phytotoxicity)

## CCN(CC)n1c(C(F)(F)F)ccc(C(=O)C2=C(O)CCCC2=O)c1=O [I-172]
[1]
  herbicidal effect, Scirpus juncoides Roxb.: 5 (90% or more of herbicidal effect and crop phytotoxicity)
[2]
  herbicidal effect, Echinochloa oryzicola Vasing: 5 (90% or more of herbicidal effect and crop phytotoxicity)
[3]
  herbicidal effect, Monochoria vaginalis (Burm. f.) C. Presl: 5 (90% or more of herbicidal effect and crop phytotoxicity)
[4]
  herbicidal effect, Barnyardgrass: 5 (90% or more of herbicidal effect and crop phytotoxicity)
[5]
  herbicidal effect, Green Foxtail: 5 (90% or more of herbicidal effect and crop phytotoxicity)
[6]
  herbicidal effect, Slender Amaranth: 5 (90% or more of herbicidal effect and crop phytotoxicity)
[7]
  herbicidal effect, Velvetleaf: 5 (90% or more of herbicidal effect and crop phytotoxicity)

## Cn1ncc(C(=O)c2ccc(C(F)(F)F)n(CCC[S+](C)[O-])c2=O)c1O (stereo not shown) [IV-58]
[1]
  herbicidal effect, Scirpus juncoides Roxb.: 4 (70 to less than 90% of herbicidal effect and crop phytotoxicity)
[2]
  herbicidal effect, Echinochloa oryzicola Vasing: 5 (90% or more of herbicidal effect and crop phytotoxicity)
[3]
  herbicidal effect, Monochoria vaginalis (Burm. f.) C. Presl: 4 (70 to less than 90% of herbicidal effect and crop phytotoxicity)
[4]
  herbicidal effect, Barnyardgrass: 5 (90% or more of herbicidal effect and crop phytotoxicity)
[5]
  herbicidal effect, Green Foxtail: 4 (70 to less than 90% of herbicidal effect and crop phytotoxicity)
[6]
  herbicidal effect, Slender Amaranth: 5 (90% or more of herbicidal effect and crop phytotoxicity)
[7]
  herbicidal effect, Velvetleaf: 4 (70 to less than 90% of herbicidal effect and crop phytotoxicity)

## C=C(C)Cn1c(C(F)(F)F)ccc(C(=O)C2=C(O)CCCC2=O)c1=O [I-12]
[1]
  herbicidal effect, Scirpus juncoides Roxb.: 5 (90% or more of herbicidal effect and crop phytotoxicity)
[2]
  herbicidal effect, Echinochloa oryzicola Vasing: 5 (90% or more of herbicidal effect and crop phytotoxicity)
[3]
  herbicidal effect, Monochoria vaginalis (Burm. f.) C. Presl: 5 (90% or more of herbicidal effect and crop phytotoxicity)
[4]
  herbicidal effect (index), Barnyardgrass: 5 (90% or more of herbicidal effect and crop phytotoxicity)
[5]
  herbicidal effect (index), Green Foxtail: 5 (90% or more of herbicidal effect and crop phytotoxicity)
[6]
  herbicidal effect (index), Slender Amaranth: 5 (90% or more of herbicidal effect and crop phytotoxicity)
[7]
  herbicidal effect (index), Velvetleaf: 5 (90% or more of herbicidal effect and crop phytotoxicity)

## CCCN(CCC)n1c(C(F)(F)F)ccc(C(=O)C2=C(O)CCCC2=O)c1=O [I-173]
[1]
  herbicidal effect, Scirpus juncoides Roxb.: 5 (90% or more of herbicidal effect and crop phytotoxicity)
[2]
  herbicidal effect, Echinochloa oryzicola Vasing: 5 (90% or more of herbicidal effect and crop phytotoxicity)
[3]
  herbicidal effect, Monochoria vaginalis (Burm. f.) C. Presl: 5 (90% or more of herbicidal effect and crop phytotoxicity)
[4]
  herbicidal effect, Barnyardgrass: 4 (70 to less than 90% of herbicidal effect and crop phytotoxicity)
[5]
  herbicidal effect, Green Foxtail: 5 (90% or more of herbicidal effect and crop phytotoxicity)
[6]
  herbicidal effect, Slender Amaranth: 4 (70 to less than 90% of herbicidal effect and crop phytotoxicity)
[7]
  herbicidal effect, Velvetleaf: 5 (90% or more of herbicidal effect and crop phytotoxicity)

## Cc1nn(C)c(O)c1C(=O)c1ccc(C(F)(F)F)n(C)c1=O [IV-231]
[1]
  herbicidal effect, Scirpus juncoides Roxb.: 5 (90% or more of herbicidal effect and crop phytotoxicity)
[2]
  herbicidal effect, Echinochloa oryzicola Vasing: 5 (90% or more of herbicidal effect and crop phytotoxicity)
[3]
  herbicidal effect, Monochoria vaginalis (Burm. f.) C. Presl: 5 (90% or more of herbicidal effect and crop phytotoxicity)
[4]
  herbicidal effect, Barnyardgrass: 3 (50 to less than 70% of herbicidal effect and crop phytotoxicity)
[5]
  herbicidal effect, Green Foxtail: 5 (90% or more of herbicidal effect and crop phytotoxicity)
[6]
  herbicidal effect, Slender Amaranth: 5 (90% or more of herbicidal effect and crop phytotoxicity)
[7]
  herbicidal effect, Velvetleaf: 5 (90% or more of herbicidal effect and crop phytotoxicity)
